pIC50: −log10 of the molar value. Read-outs that look alike come from different tables or passages of the source.
What was measured:
KARPAS-422 cells = assay: Cell growth inhibition test (CTG method); assay type: cell-based; details: KARPAS-422 (EZH2^Y641N mutant), culturing for 7 days, read-out: Cell growth inhibitory activity (GI50, nM) KARPAS-422 (EZH2^Y641N mutant)
Experimental: The cultured cell strain was prepared at 1.8×10^4 cells/400 μL and placed in a 48-well plate.

EZH1 = EZH1 (Homo sapiens (Human), UniProt Q92800); assay: EZH1 methyltransferase inhibitory activity (radiometric scintillation proximity assay)
Experimental: The inhibitory activity of the synthesized compounds above against EZH1 or EZH2 methyltransferase was measured. The experiments were consigned to Reaction Biology, and EZH1 or EZH2 activity was measured using a radiometric scintillation proximity assay. […] The buffer solution was comprised of 50 mmol/L Tris-HCl pH 8.0, 50 mmol/L NaCl, 1 mmol/L EDTA, 1 mmoL/L DTT, 1 mmol/L PMSF and 1% DMSO. Trichloroacetic acid was added to end the reaction, and SPA beads coated with PVT streptavidin were added followed by 1 hour reaction at room temperature. A TopCount NXT plate reader was used to measure the methylation value of the substrate peptide. The measured values were converted to percent activity, setting the mean value for wells treated with DMSO as 100% and the background mean value as 0%.

[1] = Homo sapiens, KARPAS-422, 168 h

Sequence of EZH1 (Q92800 whole entry): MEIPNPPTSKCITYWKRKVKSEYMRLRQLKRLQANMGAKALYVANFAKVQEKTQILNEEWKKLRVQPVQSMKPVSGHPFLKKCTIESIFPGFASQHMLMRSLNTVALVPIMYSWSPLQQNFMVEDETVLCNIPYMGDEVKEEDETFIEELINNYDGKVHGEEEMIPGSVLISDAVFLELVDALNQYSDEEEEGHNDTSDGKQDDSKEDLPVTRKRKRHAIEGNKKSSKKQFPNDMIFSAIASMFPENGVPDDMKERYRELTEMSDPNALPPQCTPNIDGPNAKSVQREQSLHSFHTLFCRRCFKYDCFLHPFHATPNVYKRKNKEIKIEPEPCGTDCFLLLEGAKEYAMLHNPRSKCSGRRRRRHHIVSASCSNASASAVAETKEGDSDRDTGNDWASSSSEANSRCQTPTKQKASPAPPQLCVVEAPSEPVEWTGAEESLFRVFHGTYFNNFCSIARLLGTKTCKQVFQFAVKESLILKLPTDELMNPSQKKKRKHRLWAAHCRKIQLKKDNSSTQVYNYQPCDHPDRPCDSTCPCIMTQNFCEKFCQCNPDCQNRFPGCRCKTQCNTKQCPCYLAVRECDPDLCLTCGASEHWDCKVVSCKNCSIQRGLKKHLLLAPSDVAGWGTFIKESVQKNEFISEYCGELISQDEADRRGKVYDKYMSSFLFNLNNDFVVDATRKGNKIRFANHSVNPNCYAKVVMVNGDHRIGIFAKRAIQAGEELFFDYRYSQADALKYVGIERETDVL
Sequence of EZH1 (O75530 whole entry partner): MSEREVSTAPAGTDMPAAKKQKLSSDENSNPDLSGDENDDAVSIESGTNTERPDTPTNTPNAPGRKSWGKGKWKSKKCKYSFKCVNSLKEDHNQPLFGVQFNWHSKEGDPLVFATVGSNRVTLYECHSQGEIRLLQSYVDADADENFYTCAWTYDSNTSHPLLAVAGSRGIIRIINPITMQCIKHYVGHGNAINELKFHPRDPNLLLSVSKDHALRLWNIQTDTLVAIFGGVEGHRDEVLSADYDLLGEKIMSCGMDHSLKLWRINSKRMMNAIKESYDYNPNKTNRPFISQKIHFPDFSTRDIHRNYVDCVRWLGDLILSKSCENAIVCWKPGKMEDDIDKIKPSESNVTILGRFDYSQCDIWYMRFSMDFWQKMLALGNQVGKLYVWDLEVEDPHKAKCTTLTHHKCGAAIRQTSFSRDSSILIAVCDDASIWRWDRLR
Sequence of EZH1 (Q15022 whole entry partner): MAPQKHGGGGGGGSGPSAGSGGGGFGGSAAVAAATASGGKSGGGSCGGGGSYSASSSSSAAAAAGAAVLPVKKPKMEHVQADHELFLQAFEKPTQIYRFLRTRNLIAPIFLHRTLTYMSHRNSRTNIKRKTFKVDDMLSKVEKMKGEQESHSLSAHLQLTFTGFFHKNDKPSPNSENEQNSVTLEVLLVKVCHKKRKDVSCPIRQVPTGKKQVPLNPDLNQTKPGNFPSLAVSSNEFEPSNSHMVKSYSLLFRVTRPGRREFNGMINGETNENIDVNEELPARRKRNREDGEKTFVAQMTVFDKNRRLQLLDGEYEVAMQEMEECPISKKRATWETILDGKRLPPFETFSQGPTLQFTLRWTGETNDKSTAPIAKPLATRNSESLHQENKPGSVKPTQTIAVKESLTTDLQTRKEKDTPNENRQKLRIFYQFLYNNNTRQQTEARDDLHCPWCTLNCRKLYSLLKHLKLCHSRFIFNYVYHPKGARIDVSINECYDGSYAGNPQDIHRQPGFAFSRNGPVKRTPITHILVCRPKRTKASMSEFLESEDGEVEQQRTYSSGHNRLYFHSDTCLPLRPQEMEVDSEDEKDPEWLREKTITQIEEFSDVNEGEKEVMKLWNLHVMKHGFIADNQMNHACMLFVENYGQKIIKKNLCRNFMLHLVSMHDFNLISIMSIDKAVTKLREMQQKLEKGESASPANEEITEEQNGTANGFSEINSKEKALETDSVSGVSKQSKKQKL
Sequence of EZH1 (Q09028 whole entry partner): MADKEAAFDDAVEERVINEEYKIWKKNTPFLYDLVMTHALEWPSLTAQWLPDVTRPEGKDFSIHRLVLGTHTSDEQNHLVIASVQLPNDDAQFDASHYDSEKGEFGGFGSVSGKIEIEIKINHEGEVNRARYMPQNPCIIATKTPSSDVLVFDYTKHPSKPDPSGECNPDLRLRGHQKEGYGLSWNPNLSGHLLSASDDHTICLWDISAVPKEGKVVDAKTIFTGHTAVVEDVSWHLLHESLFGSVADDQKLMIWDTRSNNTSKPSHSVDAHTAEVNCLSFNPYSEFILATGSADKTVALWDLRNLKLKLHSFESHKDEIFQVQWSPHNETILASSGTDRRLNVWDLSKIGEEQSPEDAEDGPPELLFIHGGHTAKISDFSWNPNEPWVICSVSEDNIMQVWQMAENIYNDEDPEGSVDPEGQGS
Sequence of EZH1 (Q6ZN18 whole entry partner): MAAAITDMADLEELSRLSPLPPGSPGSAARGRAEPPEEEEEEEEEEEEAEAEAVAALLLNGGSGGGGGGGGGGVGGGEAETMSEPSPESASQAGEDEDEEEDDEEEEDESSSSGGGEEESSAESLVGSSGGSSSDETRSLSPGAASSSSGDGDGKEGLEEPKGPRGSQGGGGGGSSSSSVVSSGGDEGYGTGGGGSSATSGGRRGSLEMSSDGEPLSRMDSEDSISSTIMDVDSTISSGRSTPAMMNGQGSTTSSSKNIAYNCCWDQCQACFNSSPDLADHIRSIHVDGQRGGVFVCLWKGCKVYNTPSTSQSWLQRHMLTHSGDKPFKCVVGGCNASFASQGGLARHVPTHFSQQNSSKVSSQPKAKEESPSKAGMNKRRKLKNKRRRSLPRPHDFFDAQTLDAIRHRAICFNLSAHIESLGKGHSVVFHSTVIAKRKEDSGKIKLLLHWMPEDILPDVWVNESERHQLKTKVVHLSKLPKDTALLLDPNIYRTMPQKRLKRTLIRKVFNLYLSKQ

GI50 (KARPAS-422 cells) [nM]	pIC50 (EZH1)	GI50 (KARPAS-422 cells; [1]) [nM]	Structure (SMILES)
4.5	7.82	–	Cc1cc(C)c(CN2CCc3c(Cl)c4c(c(C)c3C2=O)OC(C)(C23CCC(N(C)C)(CC2)CC3)O4)c(=O)[nH]1 (single isomer, unassigned) [Compound 2, 9-chloro-6-((4,6-dimethyl-2-oxo-1,2-dihydropyridin-3-yl)methyl)-2-(4-(dimethylamino)bicyclo[2.2.2]octan-1-yl)-2,4-dimethyl-7,8-dihydro-[1,3]dioxolo[4,5-g]isoquinolin-5(6H)-one]
4.5	7.77	–	COc1cc(C)[nH]c(=O)c1CN1CCc2c(Cl)c3c(c(C)c2C1=O)OC(C)(C12CCC(N(C)C)(CC1)CC2)O3 (single isomer, unassigned) [Compound 5, 9-chloro-2-(4-(dimethylamino)bicyclo[2.2.2]octan-1-yl)-6-((4-methoxy-6-methyl-2-oxo-1,2-dihydropyridin-3-yl)methyl)-2,4-dimethyl-7,8-dihydro[1,3]dioxolo[4,5-g]isoquinolin-5(6H)-one]
3.9	6.78	–	CSc1cc(C)[nH]c(=O)c1CN1CCc2c(Cl)c3c(c(C)c2C1=O)OC(C)(C12CCC(N(C)C)(CC1)CC2)O3 (single isomer, unassigned) [Compound 8, 9-chloro-2-(4-(dimethylamino)bicyclo[2.2.2]octan-1-yl)-2,4-dimethyl-6-((6-methyl-4-(methylthio)-2-oxo-1,2-dihydropyridin-3-yl)methyl)-7,8-dihydro[1,3]dioxolo[4,5-g]isoquinolin-5(6H)-one]
3.8 to 12	7.82	–	Cc1cc(C)c(CN2CCc3c(Br)c4c(c(C)c3C2=O)OC(C)(C23CCC(N(C)C)(CC2)CC3)O4)c(=O)[nH]1 (single isomer, unassigned) [Compound 11, 9-bromo-6-((4,6-dimethyl-2-oxo-1,2-dihydropyridin-3-yl)methyl)-2-(4-(dimethylamino)bicyclo[2.2.2]octan-1-yl)-2,4-dimethyl-7,8-dihydro-[1,3]dioxolo[4,5-g]isoquinolin-5(6H)-one]
–	–	> 1000	Cc1cc(C)c(CN2CCc3c(c(C)c4c(c3-c3cccn3C)O[C@@](C)([C@H]3CC[C@H](N(C)C)CC3)O4)C2=O)c(=O)[nH]1 [Compound 49, (S)-6-((4,6-dimethyl-2-oxo-1,2-dihydropyridin-3-yl)methyl)-2-(trans-4-(dimethylamino)cyclohexyl)-2,4-dimethyl-9-(1-methyl-1H-pyrrol-2-yl)-7,8-dihydro-[1,3]dioxolo[4,5-g]isoquinolin-5 (6H)-one]
–	–	> 1000	Cc1cc(C)c(CN2CCc3c(c(C)c4c(c3-c3ccsc3)O[C@@](C)([C@H]3CC[C@H](N(C)C)CC3)O4)C2=O)c(=O)[nH]1 [Compound 51, (S)-6-((4,6-dimethyl-2-oxo-1,2-dihydropyridin-3-yl)methyl)-2-(trans-4-(dimethylamino)cyclohexyl)-2,4-dimethyl-9-(thiophen-3-yl)-7,8-dihydro-[1,3]dioxolo[4,5-g]isoquinolin-5(6H)-one]
–	–	> 1000	Cc1cc(C)c(CN2CCc3c(c(C)c4c(c3-c3cncs3)O[C@@](C)([C@H]3CC[C@H](N(C)C)CC3)O4)C2=O)c(=O)[nH]1 [Compound 53, (S)-6-((4,6-dimethyl-2-oxo-1,2-dihydropyridin-3-yl)methyl)-2-(trans-4-(dimethylamino)cyclohexyl)-2,4-dimethyl-9-(thiazol-5-yl)-7,8-dihydro-[1,3]dioxolo[4,5-g]isoquinolin-5(6H)-one]
–	–	28	Cc1cc(C)c(CN2CCc3c(c(C)c4c(c3-n3ccnc3)O[C@](C)([C@H]3CC[C@H](N(C)C)CC3)O4)C2=O)c(=O)[nH]1 [Compound 54, (R)-6-((4,6-dimethyl-2-oxo-1,2-dihydropyridin-3-yl)methyl)-2-(trans-4-(dimethylamino)cyclohexyl)-9-(1H-Imidazol-1-yl)-2,4-dimethyl-7,8-dihydro-[1,3]dioxolo[4,5-g]isoquinolin-5(6H)-one]
–	–	> 1000	Cc1cc(C)c(CN2CCc3c(c(C)c4c(c3-n3ccnc3)O[C@@](C)([C@H]3CC[C@H](N(C)C)CC3)O4)C2=O)c(=O)[nH]1 [Compound 55, (S)-6-((4,6-dimethyl-2-oxo-1,2-dihydropyridin-3-yl)methyl)-2-(trans-4-(dimethylamino)cyclohexyl)-9-(1H-imidazol-1-yl)-2,4-dimethyl-7,8-dihydro-[1,3]dioxolo[4,5-g]isoquinolin-5(6H)-one]
–	–	7.2	Cc1cc(C)c(CN2CCc3c(c(C)c4c(c3-c3ccoc3)O[C@](C)([C@H]3CC[C@H](N(C)C)CC3)O4)C2=O)c(=O)[nH]1 [Compound 56, (R)-6-((4,6-dimethyl-2-oxo-1,2-dihydropyridin-3-yl)methyl)-2-(trans-4-(dimethylamino)cyclohexyl)-9-(furan-3-yl)-2,4-dimethyl-7,8-dihydro-[1,3]dioxolo[4,5-g]isoquinolin-5(6H)-one]
–	–	> 1000	Cc1cc(C)c(CN2CCc3c(c(C)c4c(c3-c3ccoc3)O[C@@](C)([C@H]3CC[C@H](N(C)C)CC3)O4)C2=O)c(=O)[nH]1 [Compound 57, (S)-6-((4,6-dimethyl-2-oxo-1,2-dihydropyridin-3-yl)methyl)-2-(trans-4-(dimethylamino)cyclohexyl)-9-(furan-3-yl)-2,4-dimethyl-7,8-dihydro-[1,3]dioxolo[4,5-g]isoquinolin-5(6H)-one]
–	–	28	Cc1cc(C)c(CN2CCc3c(c(C)c4c(c3-c3ccco3)O[C@](C)([C@H]3CC[C@H](N)CC3)O4)C2=O)c(=O)[nH]1 [Compound 58, (R)-2-(trans-4-aminocyclohexyl)-6-((4,6-dimethyl-2-oxo-1,2-dihydropyridin-3-yl)methyl)-9-(furan-2-yl)-2,4-dimethyl-7,8-dihydro-[1,3]dioxolo[4,5-g]isoquinolin-5(6H)-one]
–	–	> 1000	Cc1cc(C)c(CN2CCc3c(c(C)c4c(c3-c3ccco3)O[C@@](C)([C@H]3CC[C@H](N)CC3)O4)C2=O)c(=O)[nH]1 [Compound 59, (S)-2-(trans-4-aminocyclohexyl)-6-((4,6-dimethyl-2-oxo-1,2-dihydropyridin-3-yl)methyl)-9-(furan-2-yl)-2,4-dimethyl-7,8-dihydro-[1,3]dioxolo[4,5-g]isoquinolin-5(6H)-one]
–	–	19	CN[C@H]1CC[C@H]([C@]2(C)Oc3c(C)c4c(c(-c5ccco5)c3O2)CCN(Cc2c(C)cc(C)[nH]c2=O)C4=O)CC1 [Compound 60, (R)-6-((4,6-dimethyl-2-oxo-1,2-dihydropyridin-3-yl)methyl)-9-(furan-2-yl)-2,4-dimethyl-2-(trans-4-(methylamino)cyclohexyl)-7,8-dihydro-[1,3]dioxolo[4,5-g]isoquinolin-5(6H)-one]
–	–	> 1000	CN[C@H]1CC[C@H]([C@@]2(C)Oc3c(C)c4c(c(-c5ccco5)c3O2)CCN(Cc2c(C)cc(C)[nH]c2=O)C4=O)CC1 [Compound 61, (S)-6-((4,6-dimethyl-2-oxo-1,2-dihydropyridin-3-yl)methyl)-9-(furan-2-yl)-2,4-dimethyl-2-(trans-4-(methylamino)cyclohexyl)-7,8-dihydro-[1,3]dioxolo[4,5-g]isoquinolin-5(6H)-one]
–	–	1.3 to 15	Cc1cc(C)c(CNC(=O)c2cc(Cl)c3c(c2C)O[C@@](C)([C@H]2CC[C@H](N(C)C)CC2)O3)c(=O)[nH]1 [Control B, (2R)-7-chloro-2-[trans-4-(dimethylamino)cyclohexyl]-N-[(4,6-dimethyl-2-oxo-1,2-dihydropyridin-3-yl)methyl]-2,4-dimethyl-1,3-benzodioxole-5-carboxamide, reference compound]

Source: patent US11535629B2, “Dioxoloisoquinolinone derivatives and use thereof” (HANMI PHARMACEUTICAL CO., LTD., priority 2020, dated 2022)
